This assay concerns the target T1, Or13a cells (OR from Drosophila melanogaster with Orco) (Drosophila melanogaster, UniProt Q9VXL0).
T1 construct: with Odorant receptor coreceptor
T1 sequence (Q9VXL0 1-418): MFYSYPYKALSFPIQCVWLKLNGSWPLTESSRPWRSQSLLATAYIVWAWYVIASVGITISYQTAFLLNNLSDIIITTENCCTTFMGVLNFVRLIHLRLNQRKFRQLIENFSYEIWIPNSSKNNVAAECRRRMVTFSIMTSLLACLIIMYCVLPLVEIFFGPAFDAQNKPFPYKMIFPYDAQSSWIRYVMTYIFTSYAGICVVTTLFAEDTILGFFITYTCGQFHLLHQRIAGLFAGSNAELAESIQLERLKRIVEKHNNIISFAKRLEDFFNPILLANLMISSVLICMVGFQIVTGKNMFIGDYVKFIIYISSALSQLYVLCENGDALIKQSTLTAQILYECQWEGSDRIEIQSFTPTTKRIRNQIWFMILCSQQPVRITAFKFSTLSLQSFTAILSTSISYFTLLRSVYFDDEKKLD
T1 sequence (Q9VNB5 1-486 partner): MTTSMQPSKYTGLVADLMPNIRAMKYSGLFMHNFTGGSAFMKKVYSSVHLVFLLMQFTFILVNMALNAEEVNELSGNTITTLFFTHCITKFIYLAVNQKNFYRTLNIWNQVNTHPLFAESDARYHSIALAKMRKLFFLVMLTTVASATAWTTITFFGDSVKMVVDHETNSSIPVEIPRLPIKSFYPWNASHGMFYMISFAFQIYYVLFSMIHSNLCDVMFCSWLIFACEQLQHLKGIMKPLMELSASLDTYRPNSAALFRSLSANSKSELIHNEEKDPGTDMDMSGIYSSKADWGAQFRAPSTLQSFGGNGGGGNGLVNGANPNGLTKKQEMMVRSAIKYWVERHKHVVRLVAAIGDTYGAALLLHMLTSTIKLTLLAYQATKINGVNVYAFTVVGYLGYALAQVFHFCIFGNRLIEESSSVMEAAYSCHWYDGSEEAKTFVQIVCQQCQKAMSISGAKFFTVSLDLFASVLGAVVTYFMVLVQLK
In words: GCaMP6s calcium imaging of Sf21 cells, dose-response. The assay is classed as cell-based.

SMILES strings stand for the structures.

Broadly, the EC50 is the concentration giving half of the maximal effect. On to `C=CC(O)CCCCC` (stereo not shown) [1-octen-3-ol], for which the 50% effective concentration (EC50) amounted to 8.37 µM.
